≈ marks a conversion by molar mass, not a printed value.
Assays:
Format in all cases: cell-based
[1] = system: Staphylococcus aureus ATCC29213; test: MIC, microbroth dilution (NCCLS); conditions: rifS strain, Cation-Adjusted Mueller-Hinton Broth, 37° C., read-out: MIC
[2] = system: Staphylococcus epidermidis ATCC12228; test: MIC, microbroth dilution (NCCLS); conditions: rifS strain, Cation-Adjusted Mueller-Hinton Broth, 37° C., read-out: MIC
[3] = system: Streptococcus pneumoniae ATCC6303; test: MIC, microbroth dilution (NCCLS); conditions: rifS strain, THY Broth with 1 mg/mL catalase, 5% CO2, 37° C., read-out: MIC
[4] = system: Staphylococcus aureus MT1222 gyrA^A116E grlB^S80F; test: microbe, parasite or virus in culture; conditions: cipR strain, Cation-Adjusted Mueller-Hinton Broth, 37° C., read-out: MIC
[5] = system: Streptococcus pyogenes ATCC19615; test: MIC, microbroth dilution (NCCLS); conditions: rifS strain, THY Broth, 37° C., read-out: MIC
[6] = system: Staphylococcus aureus ATCC29213 rpoB^H418Y; test: microbe, parasite or virus in culture; conditions: Staphylococcus aureus, ATCC29213; rifR strain; Cation-Adjusted Mueller-Hinton Broth, 37° C.; read-out: MIC
[7] = system: Haemophilus influenzae ATCC10211; test: MIC, microbroth dilution (NCCLS); conditions: rifS strain, BHI Broth with NAD and hematin, 37° C., read-out: MIC

Row | Compound | MIC [1] | MIC [2] | MIC [3] | MIC [4] | MIC [5] | MIC [6] | MIC [7]
1 | COc1c(N2CCN(/N=C/c3c4c(O)c5c(O)c(C)c6c(c5c3O)C(=O)[C@@](C)(O/C=C/[C@H](OC)[C@@H](C)[C@@H](OC(C)=O)[C@H](C)[C@H](O)[C@H](C)[C@@H](O)[C@@H](C)/C=C/C=C(/C)C(=O)N4)O6)C(C(=O)O)C2)c(F)cc2c(=O)c(C(=O)O)cn(C3CC3)c12 (mixture of isomers) [Example 23, (R/S)-3-[4-(3-Carboxy-1-cyclopropyl-6-fluoro-8-methoxy-4-oxo-1,4-dihydroquinolin-7-yl)-3-carboxy-piperazin-1-yl-aminomethylenyl]-rifamycin SV] | 0.008 to 1 µg/mL (≈ 0.00709 to 0.886 µM) | 0.008 to 0.1 µg/mL (≈ 0.00709 to 0.0886 µM) | 0.008 to 0.06 µg/mL (≈ 0.00709 to 0.0532 µM) | 0.008 to 0.125 µg/mL (≈ 0.00709 to 0.111 µM) | 0.008 to 0.03 µg/mL (≈ 0.00709 to 0.0266 µM) | 0.06 to 16 µg/mL (≈ 0.0532 to 14.2 µM) | 0.125 to 4 µg/mL (≈ 0.111 to 3.55 µM)
2 | COc1c(N2CCN(C3CCN(/N=C/c4c5c(O)c6c(O)c(C)c7c(c6c4O)C(=O)[C@@](C)(O/C=C/[C@H](OC)[C@@H](C)[C@@H](OC(C)=O)[C@H](C)[C@H](O)[C@H](C)[C@@H](O)[C@@H](C)/C=C/C=C(/C)C(=O)N5)O7)CC3)CC2)c(F)cc2c(=O)c(C(=O)O)cn(C3CC3)c12 [Example 25, 3-{4-[1-(3-Carboxy-1-cyclopropyl-6-fluoro-8-methoxy-4-oxo-1,4-dihydroquinolin-7-yl)-piperazin-4-yl]-piperidin-1-yl-aminomethylenyl}-rifamycin SV] | 0.008 to 1 µg/mL (≈ 0.00685 to 0.857 µM) | 0.008 to 0.1 µg/mL (≈ 0.00685 to 0.0857 µM) | 0.008 to 0.06 µg/mL (≈ 0.00685 to 0.0514 µM) | 0.008 to 0.125 µg/mL (≈ 0.00685 to 0.107 µM) | 0.008 to 0.03 µg/mL (≈ 0.00685 to 0.0257 µM) | 0.06 to 16 µg/mL (≈ 0.0514 to 13.7 µM) | 0.125 to 4 µg/mL (≈ 0.107 to 3.43 µM)
3 | COc1c(N2CCC(N(C)/N=C/c3c4c(O)c5c(O)c(C)c6c(c5c3O)C(=O)[C@@](C)(O/C=C/[C@H](OC)[C@@H](C)[C@@H](OC(C)=O)[C@H](C)[C@H](O)[C@H](C)[C@@H](O)[C@@H](C)/C=C/C=C(/C)C(=O)N4)O6)C2)c(F)cc2c(=O)c(C(=O)O)cn(C3CC3)c12 (mixture of isomers) [Example 22, (R/S)-3-[1-(3-Carboxy-1-cyclopropyl-6-fluoro-8-methoxy-4-oxo-1,4-dihydroquinolin-7-yl)-pyrrolidinyl-3-methylhydrazino-methylenyl]-rifamycin SV] | 0.008 to 1 µg/mL (≈ 0.00728 to 0.911 µM) | 0.008 to 0.1 µg/mL (≈ 0.00728 to 0.0911 µM) | 0.008 to 0.06 µg/mL (≈ 0.00728 to 0.0546 µM) | 0.008 to 0.125 µg/mL (≈ 0.00728 to 0.114 µM) | 0.008 to 0.03 µg/mL (≈ 0.00728 to 0.0273 µM) | 0.06 to 16 µg/mL (≈ 0.0546 to 14.6 µM) | 0.125 to 4 µg/mL (≈ 0.114 to 3.64 µM)
4 | CO[C@H]1/C=C/O[C@@]2(C)Oc3c(C)c(O)c4c(O)c(c(/C=N/N5CCC(C(=O)NC6CCN(c7c(F)cc8c(=O)c(C(=O)O)cn(C9CC9)c8c7Cl)C6)CC5)c(O)c4c3C2=O)NC(=O)/C(C)=C\C=C\[C@H](C)[C@H](O)[C@@H](C)[C@@H](O)[C@@H](C)[C@H](OC(C)=O)[C@@H]1C (mixture of isomers) [Example 31, (R/S)-3-{4-[1-(3-Carboxy-8-chloro-1-cyclopropyl-6-fluoro-4-oxo-1,4-dihydroquinolin-7-yl)-pyrrolidin-3-ylcarbamoyl]-piperidin-1-yl-aminomethylenyl}-rifamycin SV] | 0.008 to 1 µg/mL (≈ 0.00667 to 0.834 µM) | 0.008 to 0.1 µg/mL (≈ 0.00667 to 0.0834 µM) | 0.008 to 0.06 µg/mL (≈ 0.00667 to 0.05 µM) | 0.008 to 0.125 µg/mL (≈ 0.00667 to 0.104 µM) | 0.008 to 0.03 µg/mL (≈ 0.00667 to 0.025 µM) | 0.06 to 16 µg/mL (≈ 0.05 to 13.3 µM) | 0.125 to 4 µg/mL (≈ 0.104 to 3.33 µM)
5 | COc1c(N2CCC(N3CCN(/N=C/c4c5c(O)c6c(O)c(C)c7c(c6c4O)C(=O)[C@@](C)(O/C=C/[C@H](OC)[C@@H](C)[C@@H](OC(C)=O)[C@H](C)[C@H](O)[C@H](C)[C@@H](O)[C@@H](C)/C=C/C=C(/C)C(=O)N5)O7)CC3)CC2)c(F)cc2c(=O)c(C(=O)O)cn(C3CC3)c12 [Example 27, 3-{4-[1-(3-Carboxy-1-cyclopropyl-6-fluoro-8-methoxy-4-oxo-1,4-dihydroquinolin-7-yl)-piperidin-4-yl]-piperazin-1-yl-aminomethylenyl}-rifamycin SV] | 0.008 to 1 µg/mL (≈ 0.00685 to 0.857 µM) | 0.008 to 0.1 µg/mL (≈ 0.00685 to 0.0857 µM) | 0.008 to 0.06 µg/mL (≈ 0.00685 to 0.0514 µM) | 0.008 to 0.125 µg/mL (≈ 0.00685 to 0.107 µM) | 0.008 to 0.03 µg/mL (≈ 0.00685 to 0.0257 µM) | 0.06 to 16 µg/mL (≈ 0.0514 to 13.7 µM) | 0.125 to 4 µg/mL (≈ 0.107 to 3.43 µM)
6 | COc1c(N2CCN(C3CCN(/N=C/c4c5c(O)c6c(O)c(C)c7c(c6c4O)C(=O)[C@@](C)(O/C=C/[C@H](OC)[C@@H](C)[C@@H](OC(C)=O)[C@H](C)[C@H](O)[C@H](C)[C@@H](O)[C@@H](C)/C=C/C=C(/C)C(=O)N5)O7)C3)CC2)c(F)cc2c(=O)c(C(=O)O)cn(C3CC3)c12 (mixture of isomers) [Example 28, (R/S)-3-{3-[1-(3-carboxy-1-cyclopropyl-6-fluoro-8-methoxy-4-oxo-1,4-dihydroquinolin-7-yl)-piperazin-4-yl]-pyrrolidinyl-1-hydrazino-methylenyl}-rifamycin SV] | 0.008 to 1 µg/mL (≈ 0.00694 to 0.867 µM) | 0.008 to 0.1 µg/mL (≈ 0.00694 to 0.0867 µM) | 0.008 to 0.06 µg/mL (≈ 0.00694 to 0.052 µM) | 0.008 to 0.125 µg/mL (≈ 0.00694 to 0.108 µM) | 0.008 to 0.03 µg/mL (≈ 0.00694 to 0.026 µM) | 0.06 to 16 µg/mL (≈ 0.052 to 13.9 µM) | 0.125 to 4 µg/mL (≈ 0.108 to 3.47 µM)
7 | CO[C@H]1/C=C/O[C@@]2(C)Oc3c(C)c(O)c4c(O)c(c(/C=N/N5CCC(N(C)C6(C7CCN(c8c(F)cc9c(=O)c(C(=O)O)cn(C%10CC%10)c9c8Cl)C7)CC6)CC5)c(O)c4c3C2=O)NC(=O)/C(C)=C\C=C\[C@H](C)[C@H](O)[C@@H](C)[C@@H](O)[C@@H](C)[C@H](OC(C)=O)[C@@H]1C (mixture of isomers) [Example 17, (R/S)-3-{[4-({1-[1-(3-Carboxy-8-chloro-1-cyclopropyl-6-fluoro-4-oxo-1,4-dihydro-quinolin-7-yl)-pyrrolidin-3-yl]-cyclopropyl}-methyl-amino)-piperidin-1-ylimino]-methyl}-rifamycin SV] | 0.008 to 1 µg/mL (≈ 0.00653 to 0.816 µM) | 0.008 to 0.1 µg/mL (≈ 0.00653 to 0.0816 µM) | 0.008 to 0.06 µg/mL (≈ 0.00653 to 0.0489 µM) | 0.008 to 0.125 µg/mL (≈ 0.00653 to 0.102 µM) | 0.008 to 0.03 µg/mL (≈ 0.00653 to 0.0245 µM) | 0.06 to 16 µg/mL (≈ 0.0489 to 13.1 µM) | 0.125 to 4 µg/mL (≈ 0.102 to 3.26 µM)
8 | CO[C@H]1/C=C/O[C@@]2(C)Oc3c(C)c(O)c4c(O)c(c(/C=N/N(C)C5CCN(c6nc7c(cc6F)c(=O)c(C(=O)O)cn7-c6ccc(F)cc6F)C5)c(O)c4c3C2=O)NC(=O)/C(C)=C\C=C\[C@H](C)[C@H](O)[C@@H](C)[C@@H](O)[C@@H](C)[C@H](OC(C)=O)[C@@H]1C (mixture of isomers) [Example 43, (R/S)-3-[1-[3-Carboxy-1-(2,4-difluoro-phenyl)-6-fluoro-4-oxo-1,4-dihydro-[1,8]naphthyridin-7-yl]-pyrrolidinyl-3-N′-methylhydrazinomethylenyl]rifamycin SV] | 0.008 to 1 µg/mL (≈ 0.00701 to 0.876 µM) | 0.008 to 0.1 µg/mL (≈ 0.00701 to 0.0876 µM) | 0.008 to 0.06 µg/mL (≈ 0.00701 to 0.0526 µM) | 0.008 to 0.125 µg/mL (≈ 0.00701 to 0.11 µM) | 0.008 to 0.03 µg/mL (≈ 0.00701 to 0.0263 µM) | 0.06 to 16 µg/mL (≈ 0.0526 to 14 µM) | 0.125 to 4 µg/mL (≈ 0.11 to 3.51 µM)
9 | CO[C@H]1/C=C/O[C@@]2(C)Oc3c(C)c(O)c4c(O)c(c(/C=N/NCC5CCN(c6c(F)cc7c(=O)c(C(=O)O)cn(C8CC8)c7c6Cl)C5)c(O)c4c3C2=O)NC(=O)/C(C)=C\C=C\[C@H](C)[C@H](O)[C@@H](C)[C@@H](O)[C@@H](C)[C@H](OC(C)=O)[C@@H]1C (mixture of isomers) [Example 39, (R/S)-3-[1-(3-Carboxy-8-chloro-1-cyclopropyl-6-fluoro-4-oxo-1,4-dihydroquinolin-7-yl)-pyrrolidin-3-yl-methyl-hydrazino-methylenyl]-rifamycin SV] | 0.008 to 1 µg/mL (≈ 0.00726 to 0.907 µM) | 0.008 to 0.1 µg/mL (≈ 0.00726 to 0.0907 µM) | 0.008 to 0.06 µg/mL (≈ 0.00726 to 0.0544 µM) | 0.008 to 0.125 µg/mL (≈ 0.00726 to 0.113 µM) | 0.008 to 0.03 µg/mL (≈ 0.00726 to 0.0272 µM) | 0.06 to 16 µg/mL (≈ 0.0544 to 14.5 µM) | 0.125 to 4 µg/mL (≈ 0.113 to 3.63 µM)
10 | COc1c(N2CCC(C3(NC4CCN(/N=C/c5c6c(O)c7c(O)c(C)c8c(c7c5O)C(=O)[C@@](C)(O/C=C/[C@H](OC)[C@@H](C)[C@@H](OC(C)=O)[C@H](C)[C@H](O)[C@H](C)[C@@H](O)[C@@H](C)/C=C/C=C(/C)C(=O)N6)O8)CC4)CC3)C2)c(F)cc2c(=O)c(C(=O)O)cn(C3CC3)c12 (mixture of isomers) [Example 46] | 0.008 to 1 µg/mL (≈ 0.00663 to 0.828 µM) | 0.008 to 0.1 µg/mL (≈ 0.00663 to 0.0828 µM) | 0.008 to 0.06 µg/mL (≈ 0.00663 to 0.0497 µM) | 0.008 to 0.125 µg/mL (≈ 0.00663 to 0.104 µM) | 0.008 to 0.03 µg/mL (≈ 0.00663 to 0.0248 µM) | 0.06 to 16 µg/mL (≈ 0.0497 to 13.3 µM) | 0.125 to 4 µg/mL (≈ 0.104 to 3.31 µM)
11 | CCn1cc(C(=O)O)c(=O)c2cc(F)c(N3CCN(/N=C/c4c5c(O)c6c(O)c(C)c7c(c6c4O)C(=O)[C@@](C)(O/C=C/[C@H](OC)[C@@H](C)[C@@H](OC(C)=O)[C@H](C)[C@H](O)[C@H](C)[C@@H](O)[C@@H](C)/C=C/C=C(/C)C(=O)N5)O7)CC3)cc21 [Example 18, 3-[4-(3-Carboxy-1-ethyl-6-fluoro-4-oxo-1,4-dihydroquinolin-7-yl)-piperazin-1-yl-aminomethylenyl]-rifamycin SV] | 0.008 to 1 µg/mL (≈ 0.00768 to 0.96 µM) | 0.008 to 0.1 µg/mL (≈ 0.00768 to 0.096 µM) | 0.008 to 0.06 µg/mL (≈ 0.00768 to 0.0576 µM) | 0.008 to 0.125 µg/mL (≈ 0.00768 to 0.12 µM) | 0.008 to 0.03 µg/mL (≈ 0.00768 to 0.0288 µM) | 0.06 to 16 µg/mL (≈ 0.0576 to 15.4 µM) | 0.125 to 4 µg/mL (≈ 0.12 to 3.84 µM)
